Experimental data reported in ChEMBL document CHEMBL3580659, “One-pot multicomponent synthesis of indole incorporated thiazolylcoumarins and their antibacterial, anticancer and DNA cleavage studies” (2015).
Active and inactive are the calls of the source. No cut-off for these calls is given here.

Key:
Escherichia coli [1] = assay: Antibacterial activity against Escherichia coli assessed as bacterial growth inhibition at 50 ug/ml after 24 hrs by cup-plate agar diffusion method; type: functional; settings: read-out: IZ
Escherichia coli [2] = assay: Induction of DNA cleavage of Escherichia coli pUC18 plasmid DNA at 50 ug/ml after 2 hrs by agarose gel elctrophoresis method
Bacillus subtilis = assay: Antibacterial activity against Bacillus subtilis assessed as bacterial growth inhibition at 50 ug/ml after 24 hrs by cup-plate agar diffusion method; type: functional; settings: read-out: IZ
Escherichia coli [3] = assay: Induction of DNA cleavage of Escherichia coli pUC18 plasmid DNA at 100 ug/ml after 2 hrs by agarose gel elctrophoresis method

Activity (Escherichia coli [2])	Activity (Escherichia coli [3])	Structure (SMILES)	zone of inhibition at 50 µg/mL (Escherichia coli [1])	zone of inhibition at 50 µg/mL (Bacillus subtilis)
Active		O=c1oc2ccccc2cc1-c1csc(N/N=C/c2c[nH]c3ccc(Br)cc23)n1	10 mm	15 mm
Active		O=c1oc2ccc3ccccc3c2cc1-c1csc(N/N=C/c2c[nH]c3ccccc23)n1	14 mm	15 mm
Active		CCn1cc(/C=N/Nc2nc(-c3cc4cc(Br)ccc4oc3=O)cs2)c2ccccc21	15 mm	15 mm
Active		COc1ccc2[nH]cc(/C=N/Nc3nc(-c4cc5c(ccc6ccccc65)oc4=O)cs3)c2c1	12 mm	15 mm
	Active	CCn1cc(/C=N/Nc2nc(-c3cc4ccccc4oc3=O)cs2)c2ccccc21	10 mm	10 mm
Active		CCn1cc(/C=N/Nc2nc(-c3cc4cc(Br)cc(Br)c4oc3=O)cs2)c2ccccc21	10 mm	10 mm
	Active	CCn1cc(/C=N/Nc2nc(-c3cc4c(ccc5ccccc54)oc3=O)cs2)c2ccccc21	12 mm	15 mm
Active		Cc1[nH]c2ccccc2c1/C=N/Nc1nc(-c2cc3cc(Cl)ccc3oc2=O)cs1	6 mm	10 mm
Active		O=c1oc2ccc(Br)cc2cc1-c1csc(N/N=C/c2c[nH]c3ccccc23)n1	13 mm	15 mm
Active		O=c1oc2ccc(Cl)cc2cc1-c1csc(N/N=C/c2c[nH]c3ccccc23)n1	15 mm	13 mm
Active		O=c1oc2c(Br)cc(Br)cc2cc1-c1csc(N/N=C/c2c[nH]c3ccccc23)n1	7 mm	10 mm
Active		Cc1[nH]c2ccccc2c1/C=N/Nc1nc(-c2cc3ccccc3oc2=O)cs1	10 mm	13 mm
Active		COc1ccc2[nH]cc(/C=N/Nc3nc(-c4cc5cc(Br)cc(Br)c5oc4=O)cs3)c2c1	10 mm	10 mm
Active		Cc1[nH]c2ccccc2c1/C=N/Nc1nc(-c2cc3cc(Br)ccc3oc2=O)cs1	12 mm	10 mm
Active		Cc1[nH]c2ccccc2c1/C=N/Nc1nc(-c2cc3cc(Br)cc(Br)c3oc2=O)cs1	12 mm	15 mm
Active		COc1ccc2[nH]cc(/C=N/Nc3nc(-c4cc5ccccc5oc4=O)cs3)c2c1	10 mm	13 mm
